Antiproliferative activities, inhibition zone and antimicrobial activities data for 3 molecules are collected here from patent US12172972B1, “3-(3-bromophenyl)-5-((2-isopropyl-5-methylphenoxy)methyl)-1,2,4-oxadiazole as an anti-cancer and antimicrobial compound” (KING FAISAL UNIVERSITY, priority 2023, dated 2024).

Holding throughout (assay type): cell-based
For test [1], the system named is human osteosarcoma cells (MG-63). Nature of the test: cytotoxicity by SRB assay. As to conditions: MG-63 cells, 0.01 μM to 100 μM, 72 h. From the text:
(§1) The anticancer activity of the described synthesized compounds against highly aggressive androgen-independent metastatic human prostate cancer cells (PC3) and osteosarcoma (MG-63) cells. The human prostate cancer cells (PC3) and human osteosarcoma cells (MG-63) were obtained from Nawah Scientific Inc. (Mokatam, Cairo, Egypt) and cultured in DMEM (Dulbecco's modified eagle's medium), Gibco, USA, supplemented with fetal bovine serum (FBS) at a concentration of 10% and 100 U/mL of penicillin and streptomycin (PS). The Cells were incubated at 37° C. in a humidified environment that contained 5% CO2.
(§2) Cells were seeded in 96-well plates as aliquots of 100 μL cell suspension and incubated in a complete media for 24 h, afterward, cells were treated with 3-(3-bromophenyl)-5-((2-isopropyl-5-methylphenoxy)methyl)-1,2,4-oxadiazole at diverse concentrations ranging from 0.01 μM to 100 μM for 72 h. Then, cells were fixed at 4° C. for one hour with 150 μL of 10% trichloroacetic acid (TCA). […] Then, 150 μL of Tris pH 10.5 (10 mM) was added, and the absorbance was measured at 540 nm using a BMG LABTECH®-FLUOstar Omega microplate reader (Ortenberg, Germany). Half maximal inhibitory concentrations (IC50) values were calculated for each experiment using GraphPad Prism 6 software. […]
(§3) The inhibition was calculated using the following equation: Inhibition %=100−Average Viability

In test [2] the test system is human prostate cancer cells (PC3). Nature of the test: cytotoxicity by SRB assay. As to conditions: 0.01 μM to 100 μM, 72 h.
From the text: as §1, §2, §3

The subject of test [3] is Aspergillus flavus. Nature of the test: agar plate disc-diffusion, inhibition zone. As for the experimental part:
(§4) The agar plate disc-diffusion method was applied. […] The discs were then placed onto the surface of agar plates (nutrient agar for bacteria and Sabouraud's dextrose agar for fungi) seeded with the test organism. Each plate contained 15 mL of the agar medium, previously seeded with 0.2 mL of the broth culture of each organism pregrown for 18 hours. The plates were incubated at 37° C. for 48 h, and 72 h for fungi. The inhibition zones were measured in mm. Discs impregnated with DMSO were used as a control, and its inhibition zone was subtracted from the tested compound actual inhibition zone.

Test [4] relates to Staphylococcus aureus. Nature of the test: agar plate disc-diffusion, inhibition zone. As for the experimental part:
as §4

For test [5], the system named is Pseudomonas aeruginosa. Nature of the test: agar plate disc-diffusion, inhibition zone. As for the experimental part:
as §4

In test [6] the test system is Bacillus cereus. Nature of the test: agar plate disc-diffusion, inhibition zone. As to the method: as §4
Test [7] deals with Escherichia coli. Nature of the test: agar plate disc-diffusion, inhibition zone. As to the method: as §4
Test [8] concerns Chrysosporium keratinophilum. Nature of the test: agar plate disc-diffusion, inhibition zone. As to the method: as §4
Test [9] concerns different microbes. Nature of the test: antimicrobial activity, agar plate disc-diffusion (overall statement). The following applies: against different microbes. As to the method:
The agar plate disc-diffusion method was applied. Sterilized filter papers (6 mm in diameter) were wetted with 10 μL of a solution of 3-(3-bromophenyl)-5-((2-isopropyl-5-methylphenoxy)methyl)-1,2,4-oxadiazole (3) to be tested, containing 10 mg/mL in DMSO, and the discs were allowed to air dry. The discs were then placed onto the surface of agar plates (nutrient agar for bacteria and Sabouraud's dextrose agar for fungi) seeded with the test organism. Each plate contained 15 mL of the agar medium, previously seeded with 0.2 mL of the broth culture of each organism pregrown for 18 hours. The plates were incubated at 37° C. for 48 h, and 72 h for fungi. The inhibition zones were measured in mm. Discs impregnated with DMSO were used as a control, and its inhibition zone was subtracted from the tested compound actual inhibition zone.

[10] abbreviates: A = concentration of comp. = 10,000 μL.
Where [11] appears, read: C = concentration of comp. = 50,000 μL.

As for `Cc1ccc(C(C)C)c(OCc2nc(-c3cccc(Br)c3)no2)c1` [3-(3-bromophenyl)-5-((2-isopropyl-5-methylphenoxy)methyl)-1,2,4-oxadiazole], the antiproliferative activities result in [1] and in [2] was “excellent antiproliferative activities” each time.
Turning to `O=C(O)c1cn(C2CC2)c2cc(N3CCNCC3)c(F)cc2c1=O` [Cip., ciprofloxacin, reference compound], the inhibition zone in test [3] (setting [10]) is 29 mm; in [3] (B =), 30 mm; in test [3] (setting [11]), 42 mm; in test [4] (setting [10]), 43 mm; in test [4] (B = concentration of comp.), 44 mm; in test [4] (setting [11]), 53 mm. Also, the inhibition zone in [5] (setting [10]) is given as 29 mm; in test [5] (B =), 30 mm; in test [5] (setting [11]) it was 53 mm; in [6] (setting [10]) it was 29 mm; in [6] (B =), 30 mm; in [6] (setting [11]), 42 mm. Further, the inhibition zone in [7] (setting [10]) stood at 30 mm; in [7] (B =), 39 mm; in [7] (setting [11]), 60 mm; in [8] (setting [10]), 29 mm; in test [8] (B = concentration of comp.) it was 30 mm; in test [8] (setting [11]), 53 mm.
For the molecule `Cc1ccc(C(C)C)c(OCc2nc(-c3cccc(Br)c3)no2)c1` [Compound 3, 3-(3-bromophenyl)-5-((2-isopropyl-5-methylphenoxy)methyl)-1,2,4-oxadiazole], the inhibition zone in test [3] (setting [10]) is recorded as 20 mm; in test [3] (B =), 24 mm; in [3] (setting [11]) it was 32 mm; in test [4] (setting [10]), 12 mm; in [4] (B = concentration of comp.), 16 mm; in test [4] (setting [11]), 19 mm. Further, the inhibition zone in [5] (setting [10]) was found to be 26 mm; in test [5] (B =), 28 mm; in test [5] (setting [11]) it was 40 mm; in [6] (setting [10]), 27 mm; in test [6] (B =) it was 29 mm; in [6] (setting [11]), 40 mm. For the same molecule, the inhibition zone in [7] (setting [10]) was 28 mm; in test [7] (B =), 36 mm; in [7] (setting [11]) it was 52 mm; in [8] (setting [10]) it was 25 mm; in test [8] (B = concentration of comp.) it was 28 mm; in [8] (setting [11]), 47 mm. Also, the antimicrobial activities result in test [9] is listed as “excellent antimicrobial activities”.
